Laboratory results reported in paper PMC11089505, “Structural Elucidation and Antiviral Activity of Covalent Cathepsin L Inhibitors” (Journal of Medicinal Chemistry, 2024).
Several values for one entry are separate records, joined by “and”; a condition that tells them apart may be missing. Equal values may be shown once.

System: SARS-CoV-2 Omicron variant BA.1 in Vero E6 cells
Test: microbe, parasite or virus in culture
Assay type: cell-based

CCCC(NC(=O)C(CC(C)C)NC(=O)OCc1ccccc1)C(=O)C(=O)NCc1ccccn1 (stereo not drawn) [CI-XII, Benzyl N-[1-[[1.2-dioxo-1-(pyridin-2-ylmethylamino)hexan-3-yl]amino]-4-methyl-1-oxopentan-2-yl]carbamate]
reduction of quantity of viral RNA: more than 50%
EC50 (Severe acute respiratory syndrome coronavirus 2, Vero C1008, 24 h, read-out: EC50 (qRT-PCR)): < 0.1 µM

CCC(CC)COC(=O)[C@H](C)N[P@](=O)(OC[C@H]1O[C@@](C#N)(c2ccc3c(N)ncnn23)[C@H](O)[C@@H]1O)Oc1ccccc1 [Remdesivir]
% RNA (qRT-PCR): 124.5% and 63.1%
